{"source": "patent US10005774B2", "about": "“Syk inhibitors” (Gilead Sciences, Inc., priority 2013, dated 2018)", "data": [{"biological_target": "Syk (Homo sapiens, UniProt P43405)", "assay": "High Throughput Syk Biochemical Assay (KinEASE TR-FRET)", "conditions": "TABLE D, 20 μM ATP, 1 μM biotinylated peptide, 0.015 nM Syk, 30 min at room temperature, read-out: IC50", "protocol": "(§1) High Throughput Syk Biochemical Assay\n(§2) Syk activity was measured using KinEASE (Cisbio), a time-resolved fluorescence resonance energy transfer (TR-FRET) immunoassay. In this assay. Syk-catalyzes the phosporylation of a XL665-labeled peptide substrate. Europium conjugated phospho-tyrosine specific antibody binds the resulting phosphorylated peptide. Formation of phosphorylated peptide is quantified by TR-FRET with Europium as the donor and XL665 the acceptor in a 2-step endpoint assay. In brief, test compounds serially diluted in DMSO were delivered into Corning white, low volume, non-binding 384 well plates using the Echo 550 acoustic liquid dispenser (Labcyte®). Syk enzyme and substrates were dispensed into assay plates using a Multi-Flo (Bio-Tek Instruments). […] Percent inhibition was calculated as follows: % Inhibition=100×(RatioSample−Ratio0% Inhibition)/(Ratio100% Inhibition−Ratio0% Inhibition)", "units": {"IC50": "nM"}, "values": [{"molecule": "C[C@@H](Oc1cc(-c2ccc(N3CCOCC3)cn2)cc2ncsc12)[C@H]1CNC(=O)C1", "note": "(stereo in doubt) [(R)-4-((R)-1-((5-(5-morpholinopyridin-2-yl)benzo[d]thiazol-7-yl)oxy)ethyl)pyrrolidin-2-one]", "IC50": 1.88}, {"molecule": "C[C@@H](Oc1nc(-c2cnn(CC(F)(F)F)c2)cc2ncn(C)c12)[C@H]1CNC(=O)C1", "note": "[(R)-4-((R)-1-(3-methyl-6-(1-(2,2,2-trifluoroethyl)-1H-pyrazol-4-yl)-3H-imidazo[4,5-c]pyridin-4-yloxy)ethyl)pyrrolidin-2-one]", "IC50": 20.8}, {"molecule": "COc1ccc(-c2cc(O[C@H](C)[C@H]3CNC(=O)C3)c3c(C)cnn3c2C)cc1OC", "note": "[(R)-4-((R)-1-((6-(3,4-dimethoxyphenyl)-3,7-dimethylpyrazolo[1,5-a]pyridin-4-yl)oxy)ethyl)pyrrolidin-2-one]", "IC50": 53.7}, {"molecule": "COc1ccc(-c2cc3ncn(C)c3c(O[C@H](C)[C@H]3CNC(=O)C3)n2)cc1OC", "note": "[(R)-4-((R)-1-(6-(3,4-dimethoxyphenyl)-3-methyl-3H-imidazo[4,5-c]pyridin-4-yloxy)ethyl)pyrrolidin-2-one]", "IC50": 5.19}, {"molecule": "CC[C@@H](Oc1nc(-c2ccc(OC)c(OC)c2)cc2ncn(C)c12)[C@H]1CNC(=O)C1", "IC50": 7.63}, {"molecule": "Cn1cnc2cc(-c3cnn(C(C)(C)C)c3)nc(O[C@H](CC(F)F)[C@H]3CNC(=O)C3)c21", "note": "[(R)-4-((R)-1-(6-(1-tert-butyl-1H-pyrazol-4-yl)-3-methyl-3H-imidazo[4,5-c]pyridin-4-yloxy)-3,3-difluoropropyl)pyrrolidin-2-one]", "IC50": 94.8}, {"molecule": "C[C@@H](Oc1nc(-c2ccc3c(c2)OCCN3C)cc2ncn(C)c12)[C@H]1CNC(=O)C1", "note": "[(R)-4-((R)-1-(3-methyl-6-(4-methyl-3,4-dihydro-2H-benzo[b][1,4]oxazin-7-yl)-3H-imidazo[4,5-c]pyridin-4-yloxy)ethyl)pyrrolidin-2-one]", "IC50": 8.93}, {"molecule": "C[C@@H](Oc1nc(-c2cc[nH]c(=O)c2)cc2ncn(C)c12)[C@H]1CNC(=O)C1", "note": "[4-(3-methyl-4-((R)-1-((R)-5-oxopyrrolidin-3-yl)ethoxy)-3H-imidazo[4,5-c]pyridin-6-yl)pyridin-2(1H)-one]", "IC50": 97.5}, {"molecule": "Cc1c(-c2cc3ncn(C)c3c(O[C@H](C)[C@H]3CNC(=O)C3)n2)cnn1C", "note": "[(R)-4-((R)-1-(6-(1,5-dimethyl-1H-pyrazol-4-yl)-3-methyl-3H-imidazo[4,5-c]pyridin-4-yloxy)ethyl)pyrrolidin-2-one]", "IC50": 41.7}, {"molecule": "COc1ccc(-c2cc3ncn(CF)c3c(O[C@H](C)[C@H]3CNC(=O)C3)n2)cc1OC", "note": "[(R)-4-((R)-1-(6-(3,4-dimethoxyphenyl)-3-(fluoromethyl)-3H-imidazo[4,5-c]pyridin-4-yloxy)ethyl)pyrrolidin-2-one]", "IC50": 2.49}, {"molecule": "COc1ccc(-c2cc(O[C@H](C)[C@H]3CNC(=O)C3)c3scnc3c2)nc1OC", "note": "(stereo in doubt) [(R)-4-((R)-1-((5-(5,6-dimethoxypyridin-2-yl)benzo[d]thiazol-7-yl)oxy)ethyl)pyrrolidin-2-one]", "IC50": 0.689}, {"molecule": "C[C@@H](Oc1cc(-c2cnn(C(C)(C)C)c2)cc2ncn(C)c12)[C@H]1CNC(=O)C1", "note": "[(R)-4-((R)-1-((5-(1-(tert-butyl)-1H-pyrazol-4-yl)-1-methyl-1H-benzo[d]imidazol-7-yl)oxy)ethyl)pyrrolidin-2-one]", "IC50": 5.35}, {"molecule": "C[C@@H](Oc1cc(-c2cnn(CC(F)F)c2)cc2ncsc12)[C@H]1CNC(=O)C1", "note": "(stereo in doubt) [(R)-4-((R)-1-((5-(1-(2,2-difluoroethyl)-1H-pyrazol-4-yl)benzo[d]thiazol-7-yl)oxy)ethyl)pyrrolidin-2-one]", "IC50": 1.24}, {"molecule": "Cc1nc2cc(-c3cnn(C(C)(C)C)c3)cc(O[C@H](C)[C@H]3CNC(=O)C3)c2s1", "note": "(stereo in doubt) [(R)-4-((R)-1-((5-(1-(tert-butyl)-1H-pyrazol-4-yl)-2-methylbenzo[d]thiazol-7-yl)oxy)ethyl)pyrrolidin-2-one]", "IC50": 22.2}, {"molecule": "COc1ccc(-c2cc3ncn(C)c3c(O[C@H](C)[C@H]3CNC(=O)C3)n2)cn1", "note": "[(R)-4-((R)-1-(6-(6-methoxypyridin-3-yl)-3-methyl-3H-imidazo[4,5-c]pyridin-4-yloxy)ethyl)pyrrolidin-2-one]", "IC50": 71.7}, {"molecule": "COc1cccc(-c2cc(O[C@H](C)[C@H]3CNC(=O)C3)c3c(c2)ncn3C)n1", "note": "[(R)-4-((R)-1-((5-(6-methoxypyridin-2-yl)-1-methyl-1H-benzo[d]imidazol-7-yl)oxy)ethyl)pyrrolidin-2-one]", "IC50": 45.7}, {"molecule": "C[C@@H](Oc1nc(-c2ccc3c(c2)C(=O)NCCO3)cc2ncn(C)c12)[C@H]1CNC(=O)C1", "note": "[7-(3-methyl-4-((R)-1-((R)-5-oxopyrrolidin-3-yl)ethoxy)-3H-imidazo[4,5-c]pyridin-6-yl)-3,4-dihydrobenzo[f][1,4]oxazepin-5(2H)-one]", "IC50": 30.6}, {"molecule": "Cn1cnc2cc(-c3cnn(C(C)(C)C)c3)nc(O[C@H](CF)[C@H]3CNC(=O)C3)c21", "note": "[(R)-4-((S)-1-(6-(1-tert-butyl-1H-pyrazol-4-yl)-3-methyl-3H-imidazo[4,5-c]pyridin-4-yloxy)-2-fluoroethyl)pyrrolidin-2-one]", "IC50": 20.1}, {"molecule": "C[C@@H](Oc1nc(-c2cnn(C3CCC3)c2)cc2ncn(C)c12)[C@H]1CNC(=O)C1", "note": "[(R)-4-((R)-1-(6-(1-cyclobutyl-1H-pyrazol-4-yl)-3-methyl-3H-imidazo[4,5-c]pyridin-4-yloxy)ethyl)pyrrolidin-2-one]", "IC50": 7.62}, {"molecule": "COc1ccc(-c2cc3nc(C)n(C(C)C)c3c(O[C@H](C)[C@H]3CNC(=O)C3)n2)cc1OC", "note": "[(R)-4-((R)-1-(6-(3,4-dimethoxyphenyl)-3-isopropyl-2-methyl-3H-imidazo[4,5-c]pyridin-4-yloxy)ethyl)pyrrolidin-2-one]", "IC50": 317}, {"molecule": "COc1cc(-c2cc(O[C@H](C)[C@H]3CNC(=O)C3)c3ccnn3c2)cc(OC)c1OC", "note": "[(R)-4-((R)-1-((6-(3,4,5-trimethoxyphenyl)pyrazolo[1,5-a]pyridin-4-yl)oxy)ethyl)pyrrolidin-2-one]", "IC50": 85.1}, {"molecule": "C[C@@H](Oc1cc(-c2ccc(N3CCN(C4COC4)CC3)cc2)cc2ncsc12)[C@H]1CNC(=O)C1", "note": "(stereo in doubt) [(R)-4-((R)-1-((5-(4-(4-(oxetan-3-yl)piperazin-1-yl)phenyl)benzo[d]thiazol-7-yl)oxy)ethyl)pyrrolidin-2-one]", "IC50": 0.681}, {"molecule": "COc1ccc(-c2cc3ncn(C4CC4)c3c(O[C@H](C)[C@H]3CNC(=O)C3)n2)cc1OC", "note": "[(R)-4-((R)-1-(3-cyclopropyl-6-(3,4-dimethoxyphenyl)-3H-imidazo[4,5-c]pyridin-4-yloxy)ethyl)pyrrolidin-2-one]", "IC50": 1.6}]}, {"biological_target": "Syk (Homo sapiens, UniProt P43405)", "assay": "High Throughput Syk Biochemical Assay (KinEASE TR-FRET)", "conditions": "table 'ALL NEW COMPOUNDS IN 2014', 20 μM ATP, 1 μM biotinylated peptide, 0.015 nM Syk, 30 min at room temperature, read-out: Syk IC50", "protocol": "as §1, §2", "units": {"IC50": "nM"}, "values": [{"molecule": "C[C@@H](Oc1cc(-c2ccc3c(c2)NCCO3)cc2ncn(C3CC3)c12)[C@H]1CNC(=O)C1", "note": "[(R)-4-((R)-1-((1-cyclopropyl-5-(3,4-dihydro-2H-benzo[b][1,4]oxazin-6-yl)-1H-benzo[d]imidazol-7-yl)oxy)ethyl)pyrrolidin-2-one]", "IC50": 2.56}, {"molecule": "C[C@@H](Oc1cc(-c2nc(C(C)(C)C)cs2)cc2ncn(C3CC3)c12)[C@H]1CNC(=O)C1", "note": "[(R)-4-((R)-1-((5-(4-(tert-butyl)thiazol-2-yl)-1-cyclopropyl-1H-benzo[d]imidazol-7-yl)oxy)ethyl)pyrrolidin-2-one]", "IC50": 0.442}, {"molecule": "Cc1ncc(-c2cc(O[C@H](C)[C@H]3CNC(=O)C3)c3c(c2)ncn3C2CC2)[nH]1", "IC50": 20.9}, {"molecule": "C[C@@H](Oc1nc(-c2ccc(N3CCN(C4COC4)CC3)c(Cl)c2)cc2ncn(C3CC3)c12)[C@H]1CNC(=O)C1", "note": "[(R)-4-((R)-1-((6-(3-chloro-4-(4-(oxetan-3-yl)piperazin-1-yl)phenyl)-3-cyclopropyl-3H-imidazo[4,5-c]pyridin-4-yl)oxy)ethyl)pyrrolidin-2-one]", "IC50": 2.76}, {"molecule": "C[C@@H](Oc1nc(-c2cnn(C3COC3)c2)cc2ncn(C3CC3)c12)[C@H]1CNC(=O)C1", "IC50": 4.65}, {"molecule": "C[C@@H](Oc1nc(-c2ccc(N3CCN(S(=O)(=O)C4COC4)CC3)cc2)cc2ncn(C3CC3)c12)[C@H]1CNC(=O)C1", "note": "[(R)-4-((R)-1-((3-cyclopropyl-6-(4-(4-(oxetan-3-ylsulfonyl)piperazin-1-yl)phenyl)-3H-imidazo[4,5-c]pyridin-4-yl)oxy)ethyl)pyrrolidin-2-one]", "IC50": 1.31}, {"molecule": "Cc1nn(C)c2ccc(-c3cc4ncn(C5CC5)c4c(O[C@H](C)[C@H]4CNC(=O)C4)n3)cc12", "note": "[(R)-4-((R)-1-((3-cyclopropyl-6-(1,3-dimethyl-1H-indazol-5-yl)-3H-imidazo[4,5-c]pyridin-4-yl)oxy)ethyl)pyrrolidin-2-one]", "IC50": 3.46}, {"molecule": "C[C@@H](Oc1nc(-c2cnc(C(C)(C)C)s2)cc2ncn(C3CC3)c12)[C@H]1CNC(=O)C1", "note": "[(R)-4-((R)-1-((6-(2-(tert-butyl)thiazol-5-yl)-3-cyclopropyl-3H-imidazo[4,5-c]pyridin-4-yl)oxy)ethyl)pyrrolidin-2-one]", "IC50": 2.1}, {"molecule": "O=C1C[C@@H](COc2nc(-c3ccc(N4CCN(C5COC5)CC4)cc3)cc3ncn(C4CC4)c23)CN1", "note": "[(R)-4-(((3-cyclopropyl-6-(4-(4-(oxetan-3-yl)piperazin-1-yl)phenyl)-3H-imidazo[4,5-c]pyridin-4-yl)oxy)methyl)pyrrolidin-2-one]", "IC50": 65.3}, {"molecule": "Cc1nc(-c2cc(O[C@H](C)[C@H]3CNC(=O)C3)c3c(c2)ncn3C2CC2)cs1", "note": "[(R)-4-((R)-1-((1-cyclopropyl-5-(2-methylthiazol-4-yl)-1H-benzo[d]imidazol-7-yl)oxy)ethyl)pyrrolidin-2-one]", "IC50": 16.7}, {"molecule": "C[C@@H](Oc1nc(-c2cnc(N3CCOCC3)s2)cc2ncn(C3CC3)c12)[C@H]1CNC(=O)C1", "note": "[(R)-4-((R)-1-((3-cyclopropyl-6-(2-morpholinothiazol-5-yl)-3H-imidazo[4,5-c]pyridin-4-yl)oxy)ethyl)pyrrolidin-2-one]", "IC50": 2.13}]}]}
